Measured values from article PMC8038501, “Bioactivity-Guided Isolation of Phytochemicals from Vaccinium dunalianum Wight and Their Antioxidant and Enzyme Inhibitory Activities” (Molecules, 2021).
Marks after values point to notes of the source that are not given here.

What was measured:
[1] = Ferric reducing/antioxidant power (FRAP) assay; conditions: for Antioxidant Activity FRAP: mean ± SD, three replicates
Protocol: The FRAP assay was conducted according to the procedure reported with slight modifications. The FRAP reagent was freshly prepared with 300 mM acetate buffer (pH 3.6), 10 mM TPTZ (2,4,6-tripyridyl-s-triazine), and 20 mM FeCl3-6H2O (10:1:1, v/v)]. A 0.5 mL of each sample (100 μg/mL) was mixed with 4.5 mL freshly prepared FRAP reagent. Then, the reaction mixture was incubated at 37 °C in the dark for 10 min. The absorbance of the mixture was recorded at 593 nm against a blank that was prepared using distilled water. Trolox was used as a control. The FRAP values were expressed as nmol Trolox equivalent (TE) per mg of extract (nmol TE/mg extract).

[2] = DPPH free-radical scavenging assay; conditions: for Antioxidant Activity DPPH: mean ± SD, three replicates
Protocol: The DPPH free radical scavenging activity was carried out by the method previously described. Briefly, 2 mL of DPPH solution (0.1 mmol/L) was mixed with 0.5 mL of sample solutions or Trolox solution (100 μg/mL in methanol). Then, the mixture was incubated for 30 min in the dark at room temperature. Absorbance of the mixture was measured at 517 nm using a SpectraMax M5 microplate reader. DPPH radical scavenging activity of each extract was expressed as nmol Trolox equivalent (TE) per mg of extract (nmol TE/mg extract).

[3] = ABTS radical scavenging assay; conditions: for Antioxidant Activity ABTS: mean ± SD, three replicates
Protocol: The ABTS assay was performed according to the procedure described earlier. Briefly, 7 mM ABTS was added to 2.5 mM […] and the mixture was allowed to stand in the dark at room temperature for 16 h to obtain the ABTS radical solution. The ABTS solution was diluted with methanol with an absorbance of 0.70 ± 0.02 at 734 nm. After adding the 25 μL extract (100 μg/mL in methanol) to 200 μL ABTS solution, the absorbance was measured after 6 min at 734 nm by using a SpectraMax M5 microplate reader. Results were expressed as nmol Trolox equivalent (TE) per mg of extract (nmol TE/mg extract).

[4] = target: T1, porcine pancreatic lipase (Sus scrofa, UniProt P00591); experiment: pancreatic lipase inhibitory assay (p-nitrophenyl laurate substrate); assay type: biochemical; conditions: mean ± SD, three replicates; read-out: Enzyme Inhibition IC50 Pancreatic Lipase (converted)
T1 construct: purchased Sigma-Aldrich (Shanghai, China)
T1 sequence (P00591 1-450): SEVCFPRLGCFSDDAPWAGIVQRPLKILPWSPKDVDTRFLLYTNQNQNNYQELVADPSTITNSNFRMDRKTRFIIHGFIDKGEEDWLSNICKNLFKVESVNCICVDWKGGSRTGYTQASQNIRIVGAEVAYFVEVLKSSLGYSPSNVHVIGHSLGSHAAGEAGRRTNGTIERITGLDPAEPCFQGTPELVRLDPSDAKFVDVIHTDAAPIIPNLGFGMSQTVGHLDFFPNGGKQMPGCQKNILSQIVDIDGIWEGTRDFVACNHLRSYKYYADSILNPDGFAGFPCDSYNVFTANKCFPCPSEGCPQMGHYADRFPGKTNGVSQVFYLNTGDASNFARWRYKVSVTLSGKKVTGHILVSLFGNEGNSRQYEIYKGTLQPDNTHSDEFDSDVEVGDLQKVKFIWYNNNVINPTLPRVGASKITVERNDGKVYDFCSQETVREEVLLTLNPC
Protocol: The pancreatic lipase inhibitory assay was conducted as previously described with some modifications. First, the porcine pancreatic lipase solution was centrifuged to collect the supernatant enzyme at 4000 g for 5 min. The substrate solution was prepared with p-nitrophenyl laurate dissolved in 5 mM sodium acetate (1:100 m/v) and Triton X-100 (1:100 v/v). The substrate solution was placed in boiling water for 2 min to fully dissolve, and then cooled down to room temperature for the enzymatic assay. The sample was dissolved in DMSO (<5% in the final reaction reagents) and diluted with 100 mM Tris-buffer (pH 8.2). Samples of 50, 100, 200, 400, 600, and 800 µg/mL were prepared. Orlistat was used as a positive control. In the enzymatic assay, the test samples (100 µL) were mixed with Tris buffer (400 µL), substrate solution (350 µL), and pancreatic lipase (150 µL). The mixture was then incubated at 37 °C for 2 h and centrifugated at 4000 g for 3 min. The absorbance of the reaction mixture was measured at 400 nm by using a SpectraMax M5 microplate reader. The percent inhibition of pancreatic lipase activity was calculated by Equation (1).

[5] = cited from earlier work
α-glucosidase = α-glucosidase (Saccharomyces cerevisiae, UniProt P53341); experiment: α-glucosidase inhibitory assay (PNPG substrate); assay type: biochemical
Sequence of α-glucosidase (P53341 whole entry): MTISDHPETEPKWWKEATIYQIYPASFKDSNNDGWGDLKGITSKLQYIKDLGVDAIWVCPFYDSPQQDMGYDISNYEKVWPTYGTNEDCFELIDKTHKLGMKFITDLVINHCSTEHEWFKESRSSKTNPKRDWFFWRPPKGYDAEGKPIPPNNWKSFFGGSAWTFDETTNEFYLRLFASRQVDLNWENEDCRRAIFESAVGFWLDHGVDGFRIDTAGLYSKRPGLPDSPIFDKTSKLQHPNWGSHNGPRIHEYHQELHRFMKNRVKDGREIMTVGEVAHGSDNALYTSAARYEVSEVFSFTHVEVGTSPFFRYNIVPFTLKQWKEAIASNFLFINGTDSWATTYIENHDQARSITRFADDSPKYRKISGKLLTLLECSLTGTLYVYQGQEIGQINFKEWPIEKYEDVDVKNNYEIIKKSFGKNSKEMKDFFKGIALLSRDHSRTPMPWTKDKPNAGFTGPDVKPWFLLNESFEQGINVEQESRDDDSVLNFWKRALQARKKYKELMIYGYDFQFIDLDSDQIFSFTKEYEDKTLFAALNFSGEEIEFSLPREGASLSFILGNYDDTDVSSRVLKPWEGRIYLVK
Protocol: The α-glucosidase inhibitory assay was performed as previously described with slight modifications. A 50 µL sample (20, 50, 100, 200, 400, 600 µg/mL) solution was added to the mixture of the α-glucosidase solution, phosphate buffer (100 µL, pH 6.8), and 50 µL of 10 mM PNPG in a 96-well microplate. Subsequently, the reaction mixture was incubated for 15 min at 37 °C. Then, sodium carbonate (50 µL, 0.2 M) was added to terminate the reaction. A blank was prepared for each sample without enzyme solution to correct the background absorbance (control). The absorbance (A) of the reaction mixture was measured at 405 nm by using a SpectraMax M5 microplate reader (Molecular Devices, Sunnyvale, CA, USA). The inhibitory percentage was determined as follows:Inhibition (%) = [(Acontrol − Asample)/Acontrol] × 100(1)

ɑ-glucosidase = tested on: ɑ-glucosidase; set-up: method as in PMID 28832228; conditions: cited from earlier work

## O=C(/C=C/c1ccc(O)c(O)c1)OC[C@H]1O[C@@H](O)[C@H](O)[C@@H](O)[C@@H]1O [Compound 2, 6-O-E-Caffeoyl-D-glucopyranose]
[1]
  Antioxidant Activity FRAP: 0.84 ± 0.01 ^e,f nmol Trolox equivalent/mg extract
[2]
  Antioxidant Activity DPPH: 1.05 ± 0.11 ^h nmol Trolox equivalent/mg extract
[3]
  Antioxidant Activity ABTS: 15.93 ± 1.65 ^ij nmol Trolox equivalent/mg extract
[4]
  IC50: 303 µM

## O=C(O)/C=C/c1ccc(O)c(O)c1 [Compound 3, Caffeic acid]
[1]
  Antioxidant Activity FRAP: 0.85 ± 0.01 ^ef nmol Trolox equivalent/mg extract
[2]
  Antioxidant Activity DPPH: 0.39 ± 0.05 ^de nmol Trolox equivalent/mg extract
[5]
  effect on antioxidant activity (reported): positive effect on antioxidant activity
[3]
  Antioxidant Activity ABTS: 3.86 ± 0.48 ^b nmol Trolox equivalent/mg extract
[4]
  IC50: 1310 µM

## O=c1c(OC2O[C@H](CO)[C@@H](O)[C@@H]2O)c(-c2ccc(O)c(O)c2)oc2cc(O)cc(O)c12 (stereo in doubt) [Compound 5, Quercetin-3-O-arabinofuranoside]
[2]
  Antioxidant Activity DPPH: 0.81 ± 0.17 ^h nmol Trolox equivalent/mg extract
α-glucosidase
  α-glucosidase inhibition (in words): relatively weak inhibitory activity
[5]
  effect on antioxidant activity (reported): positive effect on antioxidant activity
[4]
  IC50: 759 µM

## O=C(/C=C/c1ccc(O)c(O)c1)OC[C@H]1O[C@@H](Oc2ccc(O)cc2)[C@H](O)[C@@H](O)[C@@H]1O [Compound 7, 6′-O-Caffeoylarbutin]
[1]
  Antioxidant Activity FRAP: 0.87 ± 0.01 ^f nmol Trolox equivalent/mg extract
[1]; unit in section 2.5
  FRAP: 0.87 ± 0.01 nmol TE/g extract
[2]
  Antioxidant Activity DPPH: 1.21 ± 0.43 ^c nmol Trolox equivalent/mg extract
[2]; unit in section 2.5
  DPPH: 1.21 ± 0.43 nmol TE/g extract
[3]
  Antioxidant Activity ABTS: 16.96 ± 0.95 ^j nmol Trolox equivalent/mg extract
[3]; unit in section 2.5
  ABTS: 16.96 ± 0.95 nmol TE/g extract
[4]
  IC50: 225 µM

## CCOC(=O)/C=C/c1ccc(O)c(O)c1 [Compound 6, Caffeic acid ethyl ester]
[1]
  Antioxidant Activity FRAP: 0.76 ± 0.01 ^d nmol Trolox equivalent/mg extract
[2]
  Antioxidant Activity DPPH: 0.42 ± 0.03 ^e nmol Trolox equivalent/mg extract
ɑ-glucosidase
  ɑ-glucosidase inhibitory activities (reported): good ɑ-glucosidase inhibitory activities
α-glucosidase
  α-glucosidase inhibition (in words): relatively weak inhibitory activity
[3]
  Antioxidant Activity ABTS: 4.16 ± 0.25 ^b nmol Trolox equivalent/mg extract
[4]
  IC50: 1240 µM

## O=c1c(O[C@@H]2O[C@H](CO)[C@@H](O)[C@H](O)[C@H]2O)c(-c2ccc(O)cc2)oc2cc(O)cc(O)c12 [Compound 9, Kaempferol-3-O-β-D-glucopyranoside]
[2]
  Antioxidant Activity DPPH: 0.35 ± 0.01 ^cd nmol Trolox equivalent/mg extract
α-glucosidase
  α-glucosidase inhibition (in words): relatively weak inhibitory activity
[5]
  effect on antioxidant activity (reported): positive effect on antioxidant activity
[3]
  Antioxidant Activity ABTS: 6.38 ± 0.34 ^e nmol Trolox equivalent/mg extract
[4]
  IC50: 778 µM

## COC(=O)/C=C/c1ccc(O)c(O)c1 [Compound 4, Caffeic acid methyl ester]
[1]
  Antioxidant Activity FRAP: 0.82 ± 0.01 ^e nmol Trolox equivalent/mg extract
[2]
  Antioxidant Activity DPPH: 0.37 ± 0.01^d nmol Trolox equivalent/mg extract
ɑ-glucosidase
  ɑ-glucosidase inhibitory activities (reported): good ɑ-glucosidase inhibitory activities
[3]
  Antioxidant Activity ABTS: 3.10 ± 1.07 ^b nmol Trolox equivalent/mg extract
[4]
  IC50: 1380 µM

## O=C(/C=C/c1ccc(O)cc1)OC[C@H]1O[C@@H](Oc2ccc(O)cc2)[C@H](O)[C@@H](O)[C@@H]1O [Compound 8, Robustaside A]
[1]
  Antioxidant Activity FRAP: 0.49 ± 0.01 ^b nmol Trolox equivalent/mg extract
[2]
  Antioxidant Activity DPPH: 0.41 ± 0.06 ^e nmol Trolox equivalent/mg extract
α-glucosidase
  α-glucosidase inhibition (in words): relatively weak inhibitory activity
[3]
  Antioxidant Activity ABTS: 4.71 ± 0.23 ^c nmol Trolox equivalent/mg extract
[4]
  IC50: 741 µM

## O=C(O)c1ccc(O)cc1 [Compound 10, p-Hydroxybenzoic acid]
[1]
  Antioxidant Activity FRAP: 0.87 ± 0.01 ^f nmol Trolox equivalent/mg extract
[2]
  Antioxidant Activity DPPH: 1.12 ± 0.23 ^h nmol Trolox equivalent/mg extract
α-glucosidase
  α-glucosidase inhibition (in words): relatively weak inhibitory activity
[4]
  IC50: 2220 µM

## OC[C@H]1O[C@@H](Oc2ccc(O)cc2)[C@H](O)[C@@H](O)[C@@H]1O [Compound 1, Arbutin]
[1]
  Antioxidant Activity FRAP: 0.76 ± 0.01 ^d nmol Trolox equivalent/mg extract
[2]
  Antioxidant Activity DPPH: 0.45 ± 0.02 ^e nmol Trolox equivalent/mg extract
α-glucosidase
  α-glucosidase inhibition (in words): relatively weak inhibitory activity
[3]
  Antioxidant Activity ABTS: 8.38 ± 3.74 ^efg nmol Trolox equivalent/mg extract
[4]
  IC50: 1290 µM
